These results are taken from publication PMC9100920, “Crosstalk between β2- and α2-Adrenergic Receptors in the Regulation of B16F10 Melanoma Cell Proliferation” (International Journal of Molecular Sciences, 2022).

Like-named read-outs stand apart in the source and are kept apart here.

For the assay, the target named is T1, β2-AR (Mus musculus, UniProt P18762).
T1 construct: gene Adrb2
The assay is described as follows: GloSensor cAMP concentration-response in B16F10 cells (endogenous receptor), agonist. It counts as cell-based.

T1 sequence (P18762 whole entry): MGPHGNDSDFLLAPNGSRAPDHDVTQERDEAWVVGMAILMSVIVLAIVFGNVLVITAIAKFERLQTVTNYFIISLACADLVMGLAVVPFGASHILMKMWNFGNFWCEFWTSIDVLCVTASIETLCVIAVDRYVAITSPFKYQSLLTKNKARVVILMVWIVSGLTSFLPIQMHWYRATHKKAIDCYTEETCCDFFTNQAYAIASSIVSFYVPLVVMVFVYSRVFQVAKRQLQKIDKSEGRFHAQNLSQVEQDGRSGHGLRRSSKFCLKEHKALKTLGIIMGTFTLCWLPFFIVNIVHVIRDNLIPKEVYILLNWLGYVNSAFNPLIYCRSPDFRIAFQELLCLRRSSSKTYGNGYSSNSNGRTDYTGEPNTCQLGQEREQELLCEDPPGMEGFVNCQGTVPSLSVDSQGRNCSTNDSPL

One may read the EC50 as the midpoint of the concentration-response curve. `CNC[C@H](O)c1ccc(O)c(O)c1` [EPI, epinephrine] returned an EC50 of 45 nM.

Turning to `NC[C@H](O)c1ccc(O)c(O)c1` [NE, norepinephrine], the EC50 (read-out: EC50) worked out at 284 nM.
